Experimental data taken from patent publication US7732437B2, “Use of anti-histaminics for acute reduction of elevated intracranial pressure” (Janssen Pharmaceutica, NV., priority 2001, dated 2010).
One block for each molecule: values may come before it.

How the values were obtained:
[1] = tested on: Sprague-Dawley rats with closed head injury; assay: Closed Head Injury (CHI) model, severe head injury; details: for Effect on ICP / Effect on blood pressure: 0.5 mg/kg/min for 10 min, severe head injury, first 15 minutes, 6 rats; for effect on the lowering of the blood pressure: rat, in vivo
[2] = biological target: T1, human histamine H1-receptor (Homo sapiens, UniProt P35367); assay: Radioligand binding, histamine H1-receptor, competitive inhibition of [3H]Pyrilamine; details: CHO-cells transfected with the human histamine H1-receptor, read-out: H1-antagonist activity (pIC50) (converted)
T1 construct: expressed in transfected cells; host or cells: CHO cells
T1 sequence (P35367 whole entry): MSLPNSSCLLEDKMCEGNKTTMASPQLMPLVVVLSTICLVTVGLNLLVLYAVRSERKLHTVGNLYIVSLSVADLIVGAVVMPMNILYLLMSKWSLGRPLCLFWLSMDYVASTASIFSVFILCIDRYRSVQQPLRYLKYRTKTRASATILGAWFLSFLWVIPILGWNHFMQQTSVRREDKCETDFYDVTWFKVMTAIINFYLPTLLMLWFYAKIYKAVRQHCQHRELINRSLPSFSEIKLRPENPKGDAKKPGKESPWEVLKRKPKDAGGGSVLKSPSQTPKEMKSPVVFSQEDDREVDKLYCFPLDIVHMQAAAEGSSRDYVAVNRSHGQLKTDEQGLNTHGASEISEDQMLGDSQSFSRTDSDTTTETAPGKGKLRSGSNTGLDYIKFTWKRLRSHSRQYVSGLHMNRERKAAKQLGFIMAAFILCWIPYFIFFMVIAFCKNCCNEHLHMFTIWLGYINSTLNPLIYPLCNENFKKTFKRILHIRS
Method: Competitive inhibition of [^3H] […] Incubation was done during 150 min at 22° C.

non-traumatised rats = assay: ICP and blood pressure in non-traumatized rats; format: in vivo, rat; details: for effects of H2-agonists (ICP, blood pressure): dimaprit 0.5 mg/kg/min for 10 minutes, impromidine increasing doses up to 3.75 mg/kg/hour; for effects of H2-agonists on blood pressure and ICP, high dose: dimaprit 2 mg/kg/min for 10 minutes, impromidine bolus of 0.5 mg/kg
Method: For comparison, two commercially available H2-agonists (dimaprit and impromidine) were also tested by infusion into non-traumatized rats, using a dose of 0.5 mg/kg/min for 10 minutes for dimaprit and increasing doses up to 3.75 mg/kg/hour for impromidine.
Rats The effect of Compound 2, Compound 1 and Racemate (comp. 1 and comp. 2) on ICP, MABP and CPP was tested in anaesthetised non-traumatised rats. […] Conclusion

[3] = bolus of 1 mg/kg in 1 min, then infusion of 0.5 mg/kg/min for 44 min

Molecule: Cc1nc2n(C)c3ccccc3n2c(=O)c1CCN1CCC(C2c3ccccc3CCn3c2nc2ccccc23)CC1Cc1ccccc1 (single isomer, unassigned) [Compound 44]
Decision (sequential statistical evaluation) [1, 3]: active
Delta %: average change of the relative ICP from baseline over the treatment period [1, 3]: −14.8%

Molecule: Cc1nc2ccccn2c(=O)c1CCN1CCC(C2c3ccccc3CCn3c2nc2ccccc23)C(C)C1 (single isomer, unassigned) [Compound 89]
IC50 [2]: 794 nM

Molecule: Cc1nc2ccccn2c(=O)c1CCN1CCC(C2c3ccccc3CCn3c2nc2ccccc23)C(C)C1 (single isomer, unassigned) [Compound 94]
IC50 [2]: 100 nM

Molecule: CC(CN(C)C)CN1c2ccccc2Sc2ccccc21 (stereo not drawn) [Alimemazine, reference compound]
Effect on ICP [1]: −

Molecule: CN(C)CCC(c1ccc(Br)cc1)c1ccccn1 (stereo not drawn) [Brompheniramine, reference compound]
Effect on ICP [1]: −

Molecule: CN1CCN(C(c2ccccc2)c2ccc(Cl)cc2)CC1 (stereo not drawn) [Chlorcyclizine, reference compound]
Effect on ICP [1]: −
Effect on blood pressure [1]: 0
effect on the lowering of the blood pressure [1]: no or little effect

Molecule: CN1CCC[C@@H]1CCO[C@](C)(c1ccccc1)c1ccc(Cl)cc1 [Clemastine, reference compound]
Effect on ICP [1]: −

Molecule: Clc1ccc(Cn2c(CN3CCCC3)nc3ccccc32)cc1 [Clemizole, reference compound]
Effect on ICP [1]: −

Molecule: Cc1nc2n(C)c3ccccc3n2c(=O)c1CCN1CCC(C2c3ccccc3CCn3c2nc2ccccc23)CC1 (stereo not drawn) [Compound 14]
IC50 [2]: 25.1 nM

Molecule: Cc1nc2n(Cc3ccccn3)c3ccccc3n2c(=O)c1CCN1CCC(C2c3ccccc3CCn3c2nc2ccccc23)CC1Cc1ccccc1 (stereo not drawn) [Compound 20]
IC50 [2]: 398 nM

Molecule: Cc1cncc(Cn2c3ccccc3n3c(=O)c(CCN4CCC(C5c6ccccc6CCn6c5nc5ccccc56)CC4Cc4ccccc4)c(C)nc23)n1 (stereo not drawn) [Compound 27]
IC50 [2]: 631 nM

Molecule: COCCOCn1c2ccccc2n2c(=O)c(CCN3CCC(C4c5ccccc5CCn5c4nc4ccccc45)CC3Cc3ccccc3)c(C)nc12 (stereo not drawn) [Compound 29]
IC50 [2]: 501 nM

Molecule: COCCOCCn1c2ccccc2n2c(=O)c(CCN3CCC(C4c5ccccc5CCn5c4nc4ccccc45)CC3Cc3ccccc3)c(C)nc12 (stereo not drawn) [Compound 35]
IC50 [2]: 794 nM

Molecule: Cc1nc2ccccn2c(=O)c1CCN1CCC(C2c3ccccc3CCn3c2nc2ccccc23)CC1Cc1ccccc1 (stereo not drawn) [Compound 81]
IC50 [2]: 200 nM

Molecule: Cc1nc2sccn2c(=O)c1CCN1CCC(C2c3ccccc3CCn3c2nc2ccccc23)C(C)C1 (stereo not drawn) [Compound 87]
IC50 [2]: 251 nM

Molecule: Cc1nc2sccn2c(=O)c1CCN1CCC(C)(C2c3ccccc3CCn3c2nc2ccccc23)CC1 (stereo not drawn) [Compound 104]
IC50 [2]: 100 nM

Molecule: Cc1nc2sccn2c(=O)c1CCN1CCC(C2(C)c3ccccc3CCn3c2nc2ccccc23)CC1 (stereo not drawn) [Compound 110]
IC50 [2]: 126 nM

Molecule: CC(C1=C(CCN(C)C)Cc2ccccc21)c1ccccn1 (stereo not drawn) [Dimethindene, reference compound]
Effect on ICP [1]: −

Molecule: CN1CCC(OC(c2ccccc2)c2ccccc2)CC1 [Diphenylpyraline, reference compound]
Effect on ICP [1]: −

Molecule: CN1CCC(=C2c3ccccc3CC(=O)c3sccc32)CC1 [Ketotifen, reference compound]
Effect on blood pressure [1]: 0
effect on the lowering of the blood pressure [1]: no or little effect

Molecule: CCOC(=O)N1CCC(=C2c3ccc(Cl)cc3CCc3cccnc32)CC1 [Loratidine, reference compound]
Effect on ICP [1]: −

Molecule: OC[C@@H](O)[C@@H](O)[C@H](O)[C@H](O)CO [Mannitol, mannitol, reference compound]
mean reduction of ICP ([1]; i.v. mannitol 3 g over 45 min): about 20%
effect of repeated infusion on ICP ([1]; mannitol i.v. 0.125 g/kg/min, same time windows): lowering of ICP
Decision (sequential statistical evaluation) ([1]; mannitol infusion of 67 mg/kg/min for 45 min, 5 separate tests): active
Delta %: average change of the relative ICP from baseline over the treatment period ([1]; mannitol infusion of 67 mg/kg/min for 45 min, 5 separate tests, listed as Mannitol^1, 67 mg/kg): −21.7%
Delta %: average change of the relative ICP from baseline over the treatment period ([1]; mannitol infusion of 67 mg/kg/min for 45 min, 5 separate tests, listed as Mannitol^2, 67 mg/kg): −22.1%
Delta %: average change of the relative ICP from baseline over the treatment period ([1]; mannitol infusion of 67 mg/kg/min for 45 min, 5 separate tests, listed as Mannitol^3, 67 mg/kg): −13.0%
Delta %: average change of the relative ICP from baseline over the treatment period ([1]; mannitol infusion of 67 mg/kg/min for 45 min, 5 separate tests, listed as Mannitol^4, 67 mg/kg): −19.3%
Delta %: average change of the relative ICP from baseline over the treatment period ([1]; mannitol infusion of 67 mg/kg/min for 45 min, 5 separate tests, listed as Mannitol^5, 67 mg/kg): −19.9%

Molecule: O=c1[nH]c2ccccc2n1CCCN1CCN(C(c2ccccc2)c2ccccc2)CC1 [Oxatomide, reference compound]
Effect on ICP [1]: −
Effect on blood pressure [1]: −

Molecule: Cc1nc2sccn2c(=O)c1CCN1CCC(=C(c2ccc(F)cc2)c2ccc(F)cc2)CC1 [Ritanserine, reference compound]
Effect on blood pressure [1]: −

Molecule: CN(C)CCCSC(=N)N [dimaprit]
effects of H2-agonists (ICP, blood pressure) (non-traumatised rats): No effects were observed
effects of H2-agonists on blood pressure and ICP, high dose (non-traumatised rats): blood pressure and ICP were observed to drop, but recovered after the treatment

Molecule: Cc1nc[nH]c1CSCCN=C(N)NCCCc1cnc[nH]1 [impromidine]
effects of H2-agonists (ICP, blood pressure) (non-traumatised rats): No effects were observed
effects of H2-agonists on blood pressure and ICP, high dose (non-traumatised rats): blood pressure and ICP were observed to drop, but recovered after the treatment

Molecule: Cyclodextrine
Effect on ICP [1]: −

Further lines, with some results ahead:

IC50 [2]: 316 nM
Molecule: Cc1nc2n(C)c3ccccc3n2c(=O)c1CCN1CCC(C2c3ccccc3CCn3c2nc2ccccc23)CC1Cc1ccccc1 (racemic) [Compound 15]
Decision (sequential statistical evaluation) [1, 3]: active
Delta %: average change of the relative ICP from baseline over the treatment period [1, 3]: −23.3%

IC50 [2]: 631 nM
Molecule: Cc1nc2n(C)c3ccccc3n2c(=O)c1CCN1CCC(C2c3ccccc3CCn3c2nc2ccccc23)CC1Cc1ccccc1 (single isomer, unassigned) [Compound 17]
Decision (sequential statistical evaluation) [1, 3]: active
Delta %: average change of the relative ICP from baseline over the treatment period [1, 3]: −8.9%

IC50 [2]: 126 nM
Molecule: Cc1nc2n(C)c3ccccc3n2c(=O)c1CCN1CCC(C2c3ccccc3CCn3c2nc2ccccc23)CC1Cc1ccccc1 (single isomer, unassigned) [Compound 46]

IC50 [2]: 398 nM
Molecule: Cc1nc2n(C)c3ccccc3n2c(=O)c1CCN1CCC(C2c3ccccc3CCn3c2nc2ccccc23)CC1Cc1ccccc1 (single isomer, unassigned) [Compound 47]
Decision (sequential statistical evaluation) [1, 3]: active
Delta %: average change of the relative ICP from baseline over the treatment period [1, 3]: −12.0%

IC50 [2]: 398 nM
Molecule: Cc1nc2n(C)c3ccccc3n2c(=O)c1CCN1CCC(C2c3ccccc3CCn3c2nc2ccccc23)CC1Cc1ccccc1 (single isomer, unassigned) [Compound 57]

IC50 [2]: 398 nM
Molecule: Cc1nc2n(C)c3ccccc3n2c(=O)c1CCN1CCC(C2c3ccccc3CCn3c2nc2ccccc23)CC1Cc1ccccc1 (single isomer, unassigned) [Compound 58]

IC50 [2]: 316 nM
Molecule: CCn1c2ccccc2n2c(=O)c(CCN3CCC(C4c5ccccc5CCn5c4nc4ccccc45)CC3Cc3ccccc3)c(C)nc12 (stereo not drawn) [Compound 12]

IC50 [2]: 316 nM
Molecule: Cc1nc2n(C)c3ccccc3n2c(=O)c1CCN1CCC(C2c3ccccc3CCn3c2nc2ccccc23)CC1Cc1ccccc1 (stereo not drawn) [Compound 13]

IC50 [2]: 200 nM
Molecule: CCOCCn1c2ccccc2n2c(=O)c(CCN3CCC(C4c5ccccc5CCn5c4nc4ccccc45)CC3Cc3ccccc3)c(C)nc12 (stereo not drawn) [Compound 23]

IC50 [2]: 794 nM
Molecule: Cc1nc2n(C)c3ccccc3n2c(=O)c1CCN1CCC(C2c3ccccc3CCn3c2nc2ccccc23)CC1Cc1ccccc1 (stereo not drawn) [Compound 30]
Decision (sequential statistical evaluation) [1, 3]: active
Delta %: average change of the relative ICP from baseline over the treatment period [1, 3]: −9.3%

IC50 [2]: 398 nM
Molecule: CCOC(=O)Cn1c2ccccc2n2c(=O)c(CCN3CCC(C4c5ccccc5CCn5c4nc4ccccc45)CC3Cc3ccccc3)c(C)nc12 (stereo not drawn) [Compound 32]
Decision (sequential statistical evaluation) [1, 3]: active
Delta %: average change of the relative ICP from baseline over the treatment period [1, 3]: −13.9%

IC50 [2]: 631 nM
Molecule: Cc1nc2n(CCOCCO)c3ccccc3n2c(=O)c1CCN1CCC(C2c3ccccc3CCn3c2nc2ccccc23)CC1Cc1ccccc1 (stereo not drawn) [Compound 37]

IC50 [2]: 316 nM
Molecule: Cc1nc2n(C)c3ccccc3n2c(=O)c1CCN1CCC(C2c3ccccc3CCn3c2nc2ccccc23)CC1Cc1ccccc1 (stereo not drawn) [Compound 48]

IC50 [2]: 316 nM
Molecule: Cc1nc2n(C)c3ccccc3n2c(=O)c1CCN1CCC(C2c3ccccc3CCn3c2nc2ccccc23)CC1Cc1ccccc1 (stereo not drawn) [Compound 49]

IC50 [2]: 251 nM
Molecule: Cc1nc2n(C)c3ccccc3n2c(=O)c1CCN1CCC(C2c3ccccc3CCn3c2nc2ccccc23)CC1Cc1ccccc1 (stereo not drawn) [Compound 50]

IC50 [2]: 316 nM
Molecule: CCOC(=O)Cn1c2ccccc2n2c(=O)c(CCN3CCC(C4c5ccccc5CCn5c4nc4ccccc45)CC3Cc3ccccc3)c(C)nc12 (stereo not drawn) [Compound 53]

IC50 [2]: 316 nM
Molecule: CCOC(=O)Cn1c2ccccc2n2c(=O)c(CCN3CCC(C4c5ccccc5CCn5c4nc4ccccc45)CC3Cc3ccccc3)c(C)nc12 (stereo not drawn) [Compound 54]

IC50 [2]: 251 nM
Molecule: Cc1nc2n(C)c3ccccc3n2c(=O)c1CCN1CCC(C2c3ccccc3CCn3c2nc2ccccc23)CC1Cc1ccccc1 (stereo not drawn) [Compound 55]
